Consider 13 molecules from ChEMBL document CHEMBL3865835, “α-Glucosidase and α-Amylase Inhibitors from Arcytophyllum thymifolium” (J Nat Prod, 2016).

The structures appear in SMILES notation. Calls of active or inactive are those of the source. The calls are words filed in the database; no cut-off is given here.

The target of assay [1] is T1, Pancreatic alpha-amylase (Sus scrofa) (UniProt P00690).
T1 sequence (whole entry): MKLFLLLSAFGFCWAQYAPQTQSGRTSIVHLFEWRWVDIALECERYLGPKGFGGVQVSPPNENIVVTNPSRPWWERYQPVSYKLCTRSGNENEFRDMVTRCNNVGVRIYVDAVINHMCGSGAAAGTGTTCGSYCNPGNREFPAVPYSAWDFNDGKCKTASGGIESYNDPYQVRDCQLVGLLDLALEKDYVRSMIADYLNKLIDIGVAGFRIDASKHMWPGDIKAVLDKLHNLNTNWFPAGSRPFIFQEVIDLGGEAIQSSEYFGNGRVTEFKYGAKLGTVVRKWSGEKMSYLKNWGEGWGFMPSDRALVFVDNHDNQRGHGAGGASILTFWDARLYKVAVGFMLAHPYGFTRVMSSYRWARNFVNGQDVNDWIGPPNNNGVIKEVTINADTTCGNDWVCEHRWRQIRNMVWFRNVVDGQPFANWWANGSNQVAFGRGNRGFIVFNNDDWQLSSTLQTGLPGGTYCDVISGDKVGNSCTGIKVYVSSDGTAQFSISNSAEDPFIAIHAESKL
The experiment in a line: (§1) Inhibition of hog pancreas alpha-amylase using starch as substrate preincubated for 10 mins followed by substrate addition measured after 10 mins by dinitrosalicylic acid color reagent-based UV-Vis spectrophotometric analysis.

In a further assay the target is T2, Pancreatic alpha-amylase (Sus scrofa, UniProt P00690).
T2 sequence (P00690 whole entry): T1 sequence (whole entry)
The description is as §1.

For assay [2], the system named is Saccharomyces cerevisiae. The experiment in a line: (§2) Inhibition of Saccharomyces cerevisiae alpha-glucosidase using 4-nitrophenyl alpha-D-glucopyranoside as substrate after 10 mins by UV-Vis spectrophotometric analysis.
The nature of assay [3]: as §2.
Assay [4] deals with Saccharomyces cerevisiae. The assay can be described thus: Potency index, ratio of acarbose IC50 to compound IC50 for Saccharomyces cerevisiae alpha-glucosidase.

The IC50 is the concentration needed to halve the response being measured. A lower IC50 goes with greater potency in that assay.

`CC(=O)OCC1=C[C@@H]2OC(=O)C3=CO[C@@H](O[C@@H]4O[C@H](CO)[C@@H](O)[C@H](O)[C@H]4O)[C@H]1[C@@H]32`: in assay [1], the inhibition entry was “Active”.
The molecule `CC(=O)OCC1=C[C@H](O)[C@@H]2C(C(=O)O)=CO[C@@H](O[C@@H]3O[C@H](CO)[C@@H](O)[C@H](O)[C@H]3O)[C@H]12` showed an IC50 at Pancreatic alpha-amylase of 69.4 µM.
Regarding `C=C(C)[C@H]1Cc2c(c(O)cc3ccc(=O)oc23)O1`, the inhibition entry (in the assay on Saccharomyces cerevisiae [2]; in assay [1]) was “Active” throughout.
Regarding `COc1cc2ccc(=O)oc2c2c1O[C@](C)(CO)C(O)=C2`, the inhibition result (in the assay with Saccharomyces cerevisiae [2]; in assay [1]) was “Active” in each case.
Consider `C[C@H]1O[C@H](O[C@H]2[C@H](O)[C@@H](O)[C@@H](O[C@H]3[C@H](O)[C@@H](O)C(O)O[C@@H]3CO)O[C@@H]2CO)[C@H](O)[C@@H](O)[C@@H]1N[C@H]1C=C(CO)[C@@H](O)[C@H](O)[C@H]1O` (some centres not stated) [ACARBOSE], for which half-maximal inhibition in assay [3] (IC50) required 403 µM.
In the case of `O=C(/C=C/c1ccc(O)c(O)c1)O[C@@H]1C[C@](O)(C(=O)O)C[C@@H](O)[C@H]1O`, the inhibition result in assay [1] was “Active”.
Molecule `CC(C)=CCOc1cc(O)c2c(c1)O[C@H](c1ccc(O)c(O)c1)CC2=O` had an IC50 in assay [3] of 28.1 µM. The Ratio IC50 in the assay with Saccharomyces cerevisiae [4] is 10.
As to `C[C@]1(CO)Oc2c(O)cc3ccc(=O)oc3c2C=C1O`, the inhibition result in assay [1] was “Active”.
As to `COc1cc(O)c2c(=O)c(O)c(-c3ccc(O)c(O)c3)oc2c1` [RHAMNETIN], the midpoint of inhibition against Pancreatic alpha-amylase, the IC50, lay at 73.9 µM.
With `COc1cc2ccc(=O)oc2c(O)c1O`, the inhibition entry in the assay with Saccharomyces cerevisiae [2] is “Active”.
In the case of `O=c1c(O[C@@H]2O[C@H](CO)[C@H](O)[C@H](O)[C@H]2O[C@@H]2O[C@H](CO)[C@@H](O)[C@H](O)[C@H]2O)c(-c2ccc(O)cc2)oc2cc(O)cc(O)c12`, the inhibition entry in assay [1] was “Active”.
With `C=C(C)C(O)Cc1c(O)c(OC)cc2ccc(=O)oc12` (configuration not stated), the inhibition result (with Saccharomyces cerevisiae [2]; in assay [1]) was “Active” each time.
As to `O=C(O)C1=CO[C@@H](O[C@@H]2O[C@H](CO)[C@@H](O)[C@H](O)[C@H]2O)[C@@H]2C(CO)=C[C@@H](O)[C@H]12`, the inhibition entry in assay [1] is “Active”.
